Test results published in patent publication US20240358862A1, “Synthesis Method and Application of a Near-infrared Probe GGa-ICG specific binding to PSCA” (Guangzhou Shiyun Biotechnology Co., Ltd, priority 2022, published 2024).

Key:
PSCA on PC-3 cells = molecular target: T1, PSCA on PC-3 cells (Homo sapiens, UniProt O43653); assay: Antibody competition experiment by flow cytometry; assay type: cell-based; conditions: 200 nM GGa-ICG, 10 μg/mL anti-PSCA-FITC
T1 construct: Membrane proteins of PC-3 cells were extracted; endogenous in cells; host or cells: PC-3
T1 sequence (O43653 12-83): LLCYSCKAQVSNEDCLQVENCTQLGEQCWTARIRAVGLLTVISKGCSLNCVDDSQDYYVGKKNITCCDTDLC
Method: A suspension of 5×10^5 cells of PC-3 or other cell lines was incubated with 200 nM of GGa-ICG or anti-PSCA-FITC antibody in 100 μL of binding buffer on ice for 30 minutes, washed again, and subjected to flow cytometry analysis (FACS Calibur instrument, BD Biosciences): 10,000 events were collected for each sample. ICG-labeled ssDNA-ICG was used as a negative control. For the antibody competition experiment, 5×10^5 cells were incubated with 200 nM of GGa-ICG in binding buffer on ice for 30 minutes, followed by the addition of 10 μg/mL of anti-PSCA-FITC antibody and further incubation for 30 minutes as the GGa-ICG blocking group. 10 μg/mL of anti-PSCA-FITC was incubated in binding buffer on ice for […], followed by the addition of 200 nM of GGa-ICG and further incubation for 30 minutes as the anti-PSCA-FITC blocking group. Both 200 nM of GGa-ICG and 10 μg/mL of anti-PSCA-FITC antibody were incubated on ice for 30 minutes as the combined group. After washing, the cells were resuspended and subjected to flow cytometry analysis.
To confirm the results of the mass spectrometry, the location of GGa-ICG and PSCA on PC-3 cells was first examined. To achieve this, PC-3 cells were incubated with […].

[1] = test system: prostate cancer lesions (PC-3 xenograft); assay: In vivo imaging in PC-3 mouse xenograft model; parameters: species or system BALB/c nude mice
Method: Male BALB/c nude mice (BALB/c-nude) were purchased from Beijing SLAC Laboratory Animal Co., Ltd. Five-week-old nude mice were subcutaneously injected with 5×10^6 PC-3 cells on the back. The tumor was allowed to grow for 15 to 20 days until it reached a diameter of 0.5-1.5 cm. The BALB/c nude mice bearing tumors were anesthetized with sedatives and anesthetics. Once the mice were immobilized, a designated dose (0.1 mg, 0.5 mg, 1 mg, 2 mg per injection) of GGa-ICG or ssDNA-ICG was injected through the tail vein. At certain time points, fluorescent images of live mice were collected using the IVIS Lumina II in vivo imaging system. For ex vivo fluorescent experiments, tumor-bearing mice that were intravenously injected with GGa-ICG or ssDNA-ICG were euthanized by cervical dislocation 1 hour after injection under anesthesia. After dissection, organs including brain, liver, kidney, spleen, lung, heart, and tumor tissue were imaged using the IVIS Lumina II in vivo imaging system as described above.

PC tissues = assay: GGa-ICG staining of PC clinical tissue sections (confocal fluorescence microscopy); conditions: 200 nM, paraffin sections
Method: Methods: Paraffin tissue blocks were provided by the Pathology Department of the Third Affiliated Hospital of Sun Yat-sen University (Guangzhou, China). Tissue sections were deparaffinized twice in xylene for 10 min each time, followed by rehydration in a series of graded ethanol (100%, 95%, and 70%) and rinsed in deionized water. After washing in PBS for 5 min, the sections were incubated in TE buffer (10 mM Tris, 1 mM EDTA, pH=8.0, per liter of ddH2O) and boiled in a microwave oven until boiling, then kept at 95° C. for 15 min to retrieve the antigen. The sections were allowed to cool naturally to room temperature and then washed three times with fresh PBS. After histological processing, tissue sections were incubated with binding buffer containing 20% FBS and 0.1 mg/mL Herring Sperm DNA at room temperature for 60 min, followed by incubation with 200 nM GGa-ICG in the binding buffer at 4° C. for 60 min. The sections were washed three times with fresh PBS, dehydrated, and sealed with Antifade PVA mounting medium. Finally, stained sections were imaged using a spinning disk confocal fluorescence microscope (Olympus IX71, Japan). Adjacent sections were stained with […] HE staining. Fluorescence signals were observed using a 40× objective lens (NA 0.90, UPLSAPO, Olympus, Japan). Images were analyzed using FV10-ASW 3.1 software.

[2] = doses of 0.1-2 mg/animal, tail vein

Which “relationship with PSCA antibody in flow cytometry” value (PSCA on PC-3 cells) does the source give for “GGa-ICG: near-infrared probe: PSCA-binding nucleic acid aptamer GGa linked at 3′ to an ICG derivative dye (DNA TGCCACTACAGCTGGTTCGGTTTGGTGACTTCGTTCTTCGTTGTGGT; 3'-ICG dye, further chemistry not given here)” here?
The value was “competitive relationship”.

What about the “time of optimal detection after injection” value [1, 2] of the same substance?
The value was 8 to 12 h.

What about the “time until which detection lasted” value [1, 2] of the same substance?
The value was 24 to 48 h.

And the “binding to prostate cancer lesions in vivo” value ([1]; intravenous injection, at 2, 4, and 8 hours)?
The value was “specifically bound”.

And the metabolism pathway ([1]; mouse, in vivo)?
Its metabolism pathway is “partially metabolized via the liver and kidney pathways”.

And the “time within which probe in the organs was essentially metabolized” value ([1]; organs of tumor-bearing mice)?
Its value is no more than 24 h.

What about the “binding rate with PC tissues” value (PC tissues) of the same substance?
The value was 82.5%.

And the “fluorescence signal in PC and metastatic tissues” value (PC tissues)?
Its value is “Strong fluorescence signals”.

What about the “fluorescence signal in normal tissues” value (PC tissues) of the same substance?
The value was “No fluorescence signal”.
